Patent US12129261B2, “Crystalline forms of a MCL-1 inhibitor, a process for their preparation and pharmaceutical compositions containing them” (LES LABORATOIRES SERVIER, priority 2018, dated 2024)

Columns and labels:
Format in all cases: physicochemical
Solubility in water = details: pH 7.5, water
[1] = Water content by coulometric titration
Description: The water content of crystalline Form M of Compound A obtained according to any one of the processes of Examples 1 to 6 was determined by coulometric titration using a Metrohm Coulometer composed of a 774 oven sample processor, a 774 SC controller, 831 KF coulometer and a 846 Dosing interface with Tiamo 1.2 software About 10 mg of accurately weighed micronized drug substance were introduced in vials heated for 10 minutes at 140° C. The water content of the powder was also determined by the coulometric method.

[2] = Stability studies of crystalline Form A (storage, post-storage HPLC); details: for (i) Polymorphic stability / (ii) chemical stability, drug substance content determined by LC: polyethylene bag in sealed quadruple laminated foil bag
Description: For all storage conditions and storage periods, 1.2 g of crystalline Form A of Compound A obtained according to the process of Example 15 were introduced in a specific packaging for post-storage HPLC analysis.

[3] = Stability studies of crystalline Form M (storage, XRPD and post-storage HPLC); details: for stability towards temperature and humidity: 6-month storage period under various conditions
Description: For all storage conditions and storage periods, 20 mg of crystalline Form M of Compound A obtained according to any one of the processes of Examples 1 to 6 were introduced in a 30-mL vial for post-storage HPLC analysis (packaging: PVO=Opened glass container; VRAC PA=Double polyethylene bag).

[4] = Hygroscopicity by dynamic vapor sorption (DVS)
Description: The hygroscopicity of crystalline Form M of Compound A obtained according to any one of the processes of Examples 1 to 6 was assessed using the dynamic vapor sorption (DVS) technique. 5 to 10 mg of the drug substance test sample were accurately weighed into a DVS sample pan working at 25° C. under controlled humidity. The mass of the sample was recorded at 50% RH (relative humidity) until reaching a stable value. Thereafter the mass variation was recorded between 50% RH and 90% RH at a rate of 10% per hour. Mass variations were also recorded between 90% RH and 0% RH and from 0% RH back to 50% RH. The relative humidity was maintained constant when it reached either 0 or 90% RH until the mass variation was less than 0.002% per minute within a limit of lime of 15 hours. An increase in sample mass of approximately 0.4% was recorded by DVS analysis when a sample was exposed to relative humidities from 50% to 90% at 25° C.

[5] = 25° C./60% RH, 24 months of storage
[6] = 30° C./75% RH, 1 month of storage
[7] = 40° C./75% RH, 6 months of storage
[8] = 50° C./75% RH, 1 month of storage
[9] = 25° C. 60% RH, VRAC PA, 12 months
[10] = 30° C. 65% RH, VRAC PA, 12 months
[11] = 40° C. 75% RH, VRAC PA, 3 months
[12] = 40° C. 75% RH, VRAC PA, 6 months

## COc1ccccc1-c1nccc(COc2ccccc2CC(Oc2ncnc3sc(-c4ccc(F)cc4)c(-c4ccc(OCCN5CCN(C)CC5)c(Cl)c4C)c23)C(=O)O)n1 [Compound A, (2R)-2-{[(5Sa)-5-{3-chloro-2-methyl-4-[2-(4-methylpiperazin-1-yl)ethoxy]phenyl}-6-(4-fluorophenyl)thieno[2,3-d]pyrimidin-4-yl]oxy}-3-(2-{[2-(2-methoxyphenyl)pyrimidin-4-yl]methoxy}phenyl)propanoic acid]
Solubility in water
  solubility: < 1 µg/mL

## COc1ccccc1-c1nccc(COc2ccccc2CC(Oc2ncnc3sc(-c4ccc(F)cc4)c(-c4ccc(OCCN5CCN(C)CC5)c(Cl)c4C)c23)C(=O)O)n1 (centres unmarked) [Form MH, 2-{[5-{3-Chloro-2-methyl-4-[2-(4-methylpiperazin-1-yl)ethoxy]phenyl}-6-(4-fluorophenyl)thieno[2,3-d]pyrimidin-4-yl]oxy}-3-(2-{[2-(2-methoxyphenyl)pyrimidin-4-yl]methoxy}phenyl)propanoic acid]
[1]; coulometric method, powder after maturation in water
  water content: 29.3%

## COc1ccccc1-c1nccc(COc2ccccc2CC(Oc2ncnc3sc(-c4ccc(F)cc4)c(-c4ccc(OCCN5CCN(C)CC5)c(Cl)c4C)c23)C(=O)O)n1 (centres unmarked) [crystalline Form A of Compound A, 2-{[5-{3-Chloro-2-methyl-4-[2-(4-methylpiperazin-1-yl)ethoxy]phenyl}-6-(4-fluorophenyl)thieno[2,3-d]pyrimidin-4-yl]oxy}-3-(2-{[2-(2-methoxyphenyl)pyrimidin-4-yl]methoxy}phenyl)propanoic acid]
[2]; 24-month storage period under 25° C./60% RH
  stability on storage: remains stable
[2]; [5]
  (i) Polymorphic stability: (i) Form A
  (ii) chemical stability, drug substance content determined by LC: (ii) 98.8% after % m/m
[2]; [6]
  (i) Polymorphic stability: (i) Form A
  (ii) chemical stability, drug substance content determined by LC: (ii) 99.3% after % m/m
[2]; [7]
  (i) Polymorphic stability: (i) Form A
  (ii) chemical stability, drug substance content determined by LC: (ii) 99.5% after % m/m
[2]; [8]
  (i) Polymorphic stability: (i) Form A
  (ii) chemical stability, drug substance content determined by LC: (ii) 99.3% after % m/m
[2]; several months storage period under more severe conditions
  stability towards temperature and humidity: still remains stable

## COc1ccccc1-c1nccc(COc2ccccc2CC(Oc2ncnc3sc(-c4ccc(F)cc4)c(-c4ccc(OCCN5CCN(C)CC5)c(Cl)c4C)c23)C(=O)O)n1 (centres unmarked) [crystalline Form M of Compound A, 2-{[5-{3-chloro-2-methyl-4-[2-(4-methylpiperazin-1-yl)ethoxy]phenyl}-6-(4-fluorophenyl)thieno[2,3-d]pyrimidin-4-yl]oxy}-3-(2-{[2-(2-methoxyphenyl)pyrimidin-4-yl]methoxy}phenyl)propanoic acid]
[3]
  stability towards temperature and humidity: very stable
[3]; listed as Crystalline Form M of Compound A
  stability towards temperature and humidity: remains stable
[3]; 12-month storage period under 25° C./60% RH or 30° C./65% RH
  stability on storage: remains stable
[3]; 25° C. 60% RH, VRAC PA, 3 months
  (ii) chemical stability, drug substance content determined by LC: (ii) 100.0% m/m
[3]; 25° C. 60% RH, VRAC PA, 6 months
  (ii) chemical stability, drug substance content determined by LC: (ii) 99.7% m/m
[3]; [9]
  (i) Polymorphic stability: (i) Form M
  (ii) chemical stability, drug substance content determined by LC: (ii) 98.9% m/m
[3]; 25° C. 90% RH, PVO, 3 months
  (i) Polymorphic stability: (i) Form M
  (ii) chemical stability, drug substance content determined by LC: (ii) 99.7% m/m
[3]; 25° C. 90% RH, PVO, 6 weeks
  (i) Polymorphic stability: (i) Form M
  (ii) chemical stability, drug substance content determined by LC: (ii) 100.0% m/m
[3]; 30° C. 65% RH, VRAC PA, 3 months
  (ii) chemical stability, drug substance content determined by LC: (ii) 99.6% m/m
[3]; 30° C. 65% RH, VRAC PA, 6 months
  (ii) chemical stability, drug substance content determined by LC: (ii) 100.0% m/m
[3]; [10]
  (i) Polymorphic stability: (i) Form M
  (ii) chemical stability, drug substance content determined by LC: (ii) 98.8% m/m
[3]; [11]
  (i) Polymorphic stability: (i) Form M
  (ii) chemical stability, drug substance content determined by LC: (ii) 99.9% m/m
[3]; [12]
  (i) Polymorphic stability: (i) Form M
  (ii) chemical stability, drug substance content determined by LC: (ii) 100.0% m/m
[3]; 50° C. 75% RH, PVO, 3 months
  (i) Polymorphic stability: (i) Form M
  (ii) chemical stability, drug substance content determined by LC: (ii) 100.1% m/m
[3]; 50° C. 75% RH, PVO, 6 weeks
  (i) Polymorphic stability: (i) Form M
  (ii) chemical stability, drug substance content determined by LC: (ii) 100.2% m/m
[4]
  hygroscopicity according to the European Pharmacopoeia: slightly hygroscopic
[4]; DVS cycle 50-90-0-50% RH
  change to the crystalline form in X-ray powder diffractogram after water sorption/desorption/sorption cycle: no change
[4]; between 0% to 50% RH, 25° C.
  increase in sample mass (DVS): approximately 0.1%
[4]; between 90% to 0% RH, 25° C.
  decrease in sample mass (DVS): approximately 0.5%
[4]; relative humidities from 50% to 90% at 25° C.
  increase in sample mass (DVS): approximately 0.4%
[1]; vials heated for 10 minutes at 140° C.
  water content: 0.1 % in weight
